Data: patent US20260001928A1 (CORTERIA PHARMACEUTICALS, priority 2022, published 2026)
*1 amine or outer side, *2 acyl side, *3 side chain or, on linkers, in order; H or OH if unused. Where a SMILES comes first, the peptide text is derived from it. Side-chain parts run from the residue outwards. [ ]: non-standard residue; d: D form. The star is where a group is joined. C20 diacid = O=C(O)CCCCCCCCCCCCCCCCCCC(=O)*; γGlu = O=C(O)[C@H](CCC(=O)[*:2])N[*:1]; NMeI = CC[C@H](C)[C@H](NC)C(=O)O; AEEA = NCCOCCOCC(=O)O; Aib = CC(C)(N)C(=O)O

Experiments:
[1] = target: T1, human CRF2a receptor (Homo sapiens, UniProt Q13324); assay: Activity at human CRF2a receptor, cAMP functional assay in TeloHEAC cells; type: cell-based; details: TeloHEAC cells stably expressing human CRF2a receptor, relative to urocortin 2 (100 nM = 100%)
T1 construct: expressed in transfected cells; host or cells: TeloHEAC cells
T1 sequence (Q13324 1-411): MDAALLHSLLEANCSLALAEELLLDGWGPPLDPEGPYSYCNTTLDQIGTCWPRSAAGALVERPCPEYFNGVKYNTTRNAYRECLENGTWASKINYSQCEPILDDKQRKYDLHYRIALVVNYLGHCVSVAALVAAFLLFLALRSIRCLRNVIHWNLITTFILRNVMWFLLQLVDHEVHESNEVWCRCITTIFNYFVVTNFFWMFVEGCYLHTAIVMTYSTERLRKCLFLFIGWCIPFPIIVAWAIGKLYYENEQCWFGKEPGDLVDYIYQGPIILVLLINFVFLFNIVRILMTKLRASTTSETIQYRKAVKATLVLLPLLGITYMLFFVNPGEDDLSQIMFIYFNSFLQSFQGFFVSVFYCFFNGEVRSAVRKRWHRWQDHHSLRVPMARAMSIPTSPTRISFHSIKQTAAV
Method in brief: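 TeloHEAC cells stably expressing human CRF2a (10000 cells/well) were treated with 16-point 1:2 compound dilutions in HBSS/20 mM HEPES with IBMX for 30 min at 37° C. cAMP was read by HTRF (665/620 nm ratio). EC50 was the concentration giving 50% activation, with 100 nM urocortin 2 set as 100%.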

[2] = in vitro; parameters: dose or concentration left out as unconfirmed; details: dog, plasma
[3] = target: T2, CFR1R receptor (Homo sapiens, UniProt P34998); assay: Activity at anti-target CFR1R receptor, cAMP assay in CRF1R-overexpression CHO-K1 cells; type: cell-based; details: 100% = Sauvagine at 100 nM; for EC50: cAMP
T2 construct: host or cells: CHO-K1 (clone 2)
T2 sequence (P34998 24-415): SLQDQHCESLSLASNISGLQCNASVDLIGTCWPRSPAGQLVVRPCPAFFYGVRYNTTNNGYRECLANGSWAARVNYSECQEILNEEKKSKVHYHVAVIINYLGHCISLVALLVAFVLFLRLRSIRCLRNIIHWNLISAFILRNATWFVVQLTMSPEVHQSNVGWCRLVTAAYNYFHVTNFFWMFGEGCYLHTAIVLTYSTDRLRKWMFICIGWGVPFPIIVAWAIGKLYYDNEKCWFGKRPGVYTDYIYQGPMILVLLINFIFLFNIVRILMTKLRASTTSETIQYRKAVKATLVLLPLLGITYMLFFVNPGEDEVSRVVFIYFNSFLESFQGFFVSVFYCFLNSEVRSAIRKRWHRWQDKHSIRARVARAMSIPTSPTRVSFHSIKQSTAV
Method in brief: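 Uses frozen stocks of CHO-K1 clone 2 cells overexpressing human CRF1R, plated at 4000 cells/well final, with cAMP measured by the same protocol as the TeloHAEC line. Full-activation control: 100 nM Sauvagine.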

[4] = In vitro subcutaneous tissue supernatant (SCts) stability and metabolite identification, rat; type: in vitro ADME; parameters: remaining at 2 h: dose or concentration left out as unconfirmed; details: male, Sprague Dawley; rat subcutaneous tissue supernatant (SCts), 37° C, 2 h
[5] = test system: Sprague Dawley rats; assay: Effect on systolic blood pressure, telemetry in Sprague Dawley rats; type: in vivo, rat; details: 0.1 mg/kg SC; for Systolic blood pressure (Mean) % change from baseline, 8 h / Systolic blood pressure (Mean) % change from baseline, 12 h / Systolic blood pressure (Mean) % change from baseline, 24 h: n=2; for Duration of action: last time point with an effect on BP still observed
Method in brief: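 Values are % change from a 1 h pre-dose baseline in systolic pressure, tracked by telemetry for up to 48 hours after a single 0.1 mg/kg subcutaneous dose. Rats (Sprague Dawley, n=2 per peptide) carried aortic catheters and recovered at least 10 days post-surgery; duration of action marks the last time point still showing an effect.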

[6] = In vitro plasma stability, human plasma; type: in vitro ADME; parameters: dose or concentration left out as unconfirmed; details: Human PLM, 37° C.
[7] = In vitro plasma stability, rat plasma; type: in vitro ADME; parameters: remaining at 2 h: dose or concentration left out as unconfirmed; details: male, Sprague Dawley, plasma; Rat PLM, 37° C.
Experimental: In vitro plasma metabolic stability was studied in male Sprague Dawley rats and human. Test compounds were incubated at 3 M for 2 hours at 37° C. At each time point (0, 0.25, 1 and 2 h), samples were prepared for analysis by means of a single step protein precipitation technique by adding 150 μL of ethanol, 0.1% formic acid to 50 μL aliquots of plasma. Samples were mixed by vortex for homogeneity and then subjected to centrifugation at 14000 rpm for 15 min. The supernatant (100 μL) was collected, diluted with 100 μL of water, 0.1% formic acid and analyzed by LC-HRMS (TripleTOF 6600+, AB Sciex). For each test compound, the area ratios at each time point were compared to the 0 h area ratio and converted to a percentage remaining.

[8] = Chemical stability in buffer (pH 7.4 / pH 4.5), % purity loss; type: physicochemical; details: 100 mM phosphate buffer pH 7.4; 40° C. vs 5° C.; 14 or 28 days
Method in brief: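 LC-UV gave % loss after 14 or 28 days of storage at 5 °C or 40 °C. Samples were diluted supernatants from compound incubated 1 h at room temperature at 10 mg/mL target, in 100 mM acetate pH 4.5 or 100 mM phosphate pH 7.4.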

[9] = Pharmacokinetics in male Sprague Dawley rats after subcutaneous administration; type: in vivo; details: plasma, rat, IV, 0.05 mg/kg
[10] = Human PLM; details: 37° C., up to 2 hours
[11] = Rat PLM; details: male Sprague Dawley rats, 37° C., up to 2 hours
[12] = Dog PLM; details: 37° C., up to 2 hours

| Molecule | EC50 [1] [pM] | remaining at 2 h [2] [%] | Emax (% I) [3] [% I] | EC50 [3] [pM] | remaining at 2 h [4] [%] | Systolic blood pressure (Mean) % change from baseline, 8 h [5] [%] | Systolic blood pressure (Mean) % change from baseline, 12 h [5] [%] | Systolic blood pressure (Mean) % change from baseline, 24 h [5] [%] | Duration of action [5] [h] | remaining at 2 h [6] [%] | remaining at 2 h [7] [%] | Buffer stability pH 7.4 % purity loss [8] | AUC(0-t) [9] [ng·h/mL] | half-life [9] [h] | not cleaved [10] [% remaining at 2 hours] | not cleaved [11] [% remaining at 2 hours] | percent remaining [12] [% remaining at 2 hours] |
| --- | --- | --- | --- | --- | --- | --- | --- | --- | --- | --- | --- | --- | --- | --- | --- | --- | --- |
| CC[C@H](C)[C@H](NC(C)=O)C(=O)N[C@H](C(=O)N[C@@H](CC(C)C)C(=O)N[C@@H](CO)C(=O)N[C@@H](CC(C)C)C(=O)N[C@@H](CC(=O)O)C(=O)N[C@@H](C(=O)N1CCC[C@H]1C(=O)N[C@H](C(=O)N[C@@H](CCCCN)C(=O)N[C@@H](CC(C)C)C(=O)N[C@@H](CCCCNC(=O)CC[C@H](NC(=O)CCCCCCCCCCCCCCCCCCC(=O)O)C(=O)O)C(=O)N[C@@H](CCCCN)C(=O)N[C@H](C(=O)N[C@@H](CC(C)C)C(=O)N[C@@H](CC(C)C)C(=O)N[C@@H](CCC(=O)O)C(=O)N[C@@H](CCC(N)=O)C(=O)N[C@@H](CCC(=O)O)C(=O)N[C@@H](CCCCN)C(=O)N[C@@H](CCC(N)=O)C(=O)N[C@@H](CCCCN)C(=O)N[C@@H](CCC(=O)O)C(=O)N[C@@H](CCC(N)=O)C(=O)N[C@@H](CCCNC(=N)N)C(=O)N[C@@H](CCC(=O)O)C(=O)N[C@@H](CCC(N)=O)C(=O)N[C@@H](C)C(=O)N[C@@H](CCC(=O)O)C(=O)N[C@H](C(=O)N[C@@H](CC(N)=O)C(=O)NC(C)(C)C(=O)N[C@@H](CCC(N)=O)C(=O)N[C@H](C(=O)N[C@@H](CC(C)C)C(=O)N[C@@H](C)C(=O)N[C@@H](CCC(N)=O)C(=O)N[C@H](C(N)=O)C(C)C)[C@@H](C)CC)[C@@H](C)O)[C@@H](C)CC)[C@@H](C)CC)C(C)C)C(C)C [compound 213] (Ac-IVLSLD[dV]PIKLK([γGlu-C20 diacid])KILLEQEKQKEQREQAETN[Aib]QILAQV-NH2) | 220 | 102 | 27 | > 250000 | 74 | −10 | −18 | −13 | >24 | 99 | 99 | −0.1/Not Tested % |  |  |  |  |  |
| CC[C@H](C)[C@H](NC)C(=O)N[C@H](C(=O)N[C@@H](CC(C)C)C(=O)N[C@@H](CO)C(=O)N[C@@H](CC(C)C)C(=O)N[C@@H](CC(=O)O)C(=O)N[C@@H](C(=O)N1CCC[C@H]1C(=O)N[C@H](C(=O)N[C@@H](CCCCN)C(=O)N[C@@H](CC(C)C)C(=O)N[C@@H](CCCCNC(=O)COCCOCCNC(=O)CC[C@H](NC(=O)CCCCCCCCCCCCCCCCCCC(=O)O)C(=O)O)C(=O)N[C@@H](CCCCN)C(=O)N[C@H](C(=O)N[C@@H](CC(C)C)C(=O)N[C@@H](CC(C)C)C(=O)N[C@@H](CCC(=O)O)C(=O)N[C@@H](CCC(N)=O)C(=O)N[C@@H](CCC(=O)O)C(=O)N[C@@H](CCCCN)C(=O)N[C@@H](CCC(N)=O)C(=O)N[C@@H](CCCCN)C(=O)N[C@@H](CCC(=O)O)C(=O)N[C@@H](CCC(N)=O)C(=O)N[C@@H](CCCNC(=N)N)C(=O)N[C@@H](CCC(=O)O)C(=O)N[C@@H](CCC(N)=O)C(=O)N[C@@H](C)C(=O)N[C@@H](CCC(=O)O)C(=O)N[C@H](C(=O)N[C@@H](CC(N)=O)C(=O)NC(C)(C)C(=O)N[C@@H](CCC(N)=O)C(=O)N[C@H](C(=O)N[C@@H](CC(C)C)C(=O)N[C@@H](C)C(=O)N[C@@H](CCC(N)=O)C(=O)N[C@H](C(N)=O)C(C)C)[C@@H](C)CC)[C@@H](C)O)[C@@H](C)CC)[C@@H](C)CC)C(C)C)C(C)C [compound 233] (H-[NMeI]VLSLD[dV]PIKLK([AEEA-γGlu-C20 diacid])KILLEQEKQKEQREQAETN[Aib]QILAQV-NH2) | 120 | 99 | 8 | > 250000 | 56 | 1 | −8 | −11 | >24 | 100 | 106 | 0.0/Not Tested % | 4880 | 9 |  |  |  |
| CC[C@H](C)[C@H](NC)C(=O)N[C@H](C(=O)N[C@@H](CC(C)C)C(=O)N[C@@H](CO)C(=O)N[C@@H](CC(C)C)C(=O)N[C@@H](CC(=O)O)C(=O)N[C@@H](C(=O)N1CCC[C@H]1C(=O)N[C@H](C(=O)N[C@@H](CCCCN)C(=O)N[C@@H](CC(C)C)C(=O)N[C@@H](CCCCNC(=O)COCCOCCNC(=O)COCCOCCNC(=O)CC[C@H](NC(=O)CCCCCCCCCCCCCCCCCCC(=O)O)C(=O)O)C(=O)N[C@@H](CCCCN)C(=O)N[C@H](C(=O)N[C@@H](CC(C)C)C(=O)N[C@@H](CC(C)C)C(=O)N[C@@H](CCC(=O)O)C(=O)N[C@@H](CCC(N)=O)C(=O)N[C@@H](CCC(=O)O)C(=O)N[C@@H](CCCCN)C(=O)N[C@@H](CCC(N)=O)C(=O)N[C@@H](CCCCN)C(=O)N[C@@H](CCC(=O)O)C(=O)N[C@@H](CCC(N)=O)C(=O)N[C@@H](CCCNC(=N)N)C(=O)N[C@@H](CCC(=O)O)C(=O)N[C@@H](CCC(N)=O)C(=O)N[C@@H](C)C(=O)N[C@@H](CCC(=O)O)C(=O)N[C@H](C(=O)N[C@@H](CC(N)=O)C(=O)NC(C)(C)C(=O)N[C@@H](CCC(N)=O)C(=O)N[C@H](C(=O)N[C@@H](CC(C)C)C(=O)N[C@@H](C)C(=O)N[C@@H](CCC(N)=O)C(=O)N[C@H](C(N)=O)C(C)C)[C@@H](C)CC)[C@@H](C)O)[C@@H](C)CC)[C@@H](C)CC)C(C)C)C(C)C [compound 237] (H-[NMeI]VLSLD[dV]PIKLK([AEEA-AEEA-γGlu-C20 diacid])KILLEQEKQKEQREQAETN[Aib]QILAQV-NH2) | 410 | 86 | 6 | > 250000 | 60 |  |  |  |  | 83 | 84 | 0.0/Not Tested % | 4160 | 11 |  |  |  |
| Ac-IVLSLDvPIKLK*KILLEQEKQKEQREQAETNAibQILAQV-NH2 |  |  |  |  |  |  |  |  |  |  |  |  |  |  | 99 | 99 | 102 |
| NMeIVLSLDvPIKLK*KILLEQEKQKEQREQAETNAibQILAQV-NH2 [218] |  |  |  |  |  |  |  |  |  |  |  |  |  |  | 99 | 109 | 102 |
| NMeIVLSLDvPIKLK*KILLEQEKQKEQREQAETNAibQILAQV-NH2 [233] |  |  |  |  |  |  |  |  |  |  |  |  |  |  | 100 | 106 | 99 |
